Reference: the NIST ThermoML archive (doi:10.1016/j.fluid.2013.01.015)
Numbers after ± are expanded uncertainties.

Experiments:
[1] = refractive index (Na D-line) (dimensionless); details: 298.15 K; 101.33 kPa; Liquid; Standard Abbe refractometry
[2] = 298.15 K; 101.33 kPa; Liquid; Vibrating tube method

| SMILES | refractive index [1] | mass density [2] [kg/m3] |
| --- | --- | --- |
| Cc1ccccc1C [1,2-dimethylbenzene] | 1.49466 ± 0.00072 | 859.54 ± 0.14 |
| Cc1cccc(C)c1 [1,3-dimethylbenzene] | 1.49464 ± 0.00072 | 859.95 ± 0.14 |
| Cc1ccc(C)cc1 [1,4-dimethylbenzene] | 1.4958 ± 0.0007 | 856.71 ± 0.14 |
| CCCCCCCC [octane] | 1.3951 ± 0.0007 | 698.61 ± 0.17 |
